# Reference: patent US20240246964A1 (Arbutus Biopharma Corporation, priority 2021, published 2024)
# pEC50, pIC50: −log10 of the molar value.
# How the values were obtained:
# [1] = molecular target: PD-L1 His protein / PD-1 Fc protein (Homo sapiens (Human), UniProt Q9NZQ7); test: HTRF Assay (PD-1/PD-L1 interaction); assay type: binding; settings: PD-L1 His 6 nM, PD-1 Fc 6 nM
# [2] = molecular target: human PD-L1 (Homo sapiens (Human), UniProt Q9NZQ7); test: T cell activation luciferase reporter cell culture system (T Cell Activation Assay); assay type: cell-based; settings: luciferase reporter assay; PD-L1 aAPC/CHO-K1 cells with PD-1 effector Jurkat T cells
# human PD-L1, sequence (Q9NZQ7 19-290): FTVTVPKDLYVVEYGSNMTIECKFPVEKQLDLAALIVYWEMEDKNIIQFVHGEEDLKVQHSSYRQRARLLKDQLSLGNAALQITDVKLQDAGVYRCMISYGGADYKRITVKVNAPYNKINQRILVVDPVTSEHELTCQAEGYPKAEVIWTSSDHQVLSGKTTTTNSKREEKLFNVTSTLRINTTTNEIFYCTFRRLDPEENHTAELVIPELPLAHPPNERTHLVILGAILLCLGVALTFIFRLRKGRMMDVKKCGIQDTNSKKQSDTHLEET
# PD-L1 His protein / PD-1 Fc protein, sequence (Q9NZQ7 19-238): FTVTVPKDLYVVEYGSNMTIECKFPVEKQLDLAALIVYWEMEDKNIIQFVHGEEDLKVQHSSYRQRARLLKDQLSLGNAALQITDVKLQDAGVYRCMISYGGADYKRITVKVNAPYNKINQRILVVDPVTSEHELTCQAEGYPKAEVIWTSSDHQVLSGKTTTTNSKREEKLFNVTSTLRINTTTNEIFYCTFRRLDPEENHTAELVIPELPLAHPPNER
Compound,pIC50 [1],pEC50 [2]
"COc1nc(-c2cccc(-c3ccnc(-c4cnc5c(CNC[C@@H]6CCO6)cn(C)c5c4)c3Cl)c2Cl)ccc1CNC[C@@H]1CCC(=O)N1 [Compound 22, (S)-5-((((6-(2-chloro-3-(3-chloro-2-(1-methyl-3-(((((S)-oxetan-2-yl)methyl)amino)methyl)-1H-pyrrolo[3,2-b]pyridin-6-yl)pyridin-4-yl)phenyl)-2-methoxypyridin-3-yl)methyl)amino)methyl)pyrrolidin-2-one]",9.52,6.87
"COc1cc(-c2nccc(-c3cccc(-c4ccc(CNC[C@@H]5CCC(=O)N5)c(OC)n4)c3Cl)c2Cl)cnc1CNC[C@@H]1CCC(=O)N1 [Compound 23, (S)-5-((((6-(2-chloro-3-(3-chloro-5′-methoxy-6′-(((((S)-5-oxopyrrolidin-2-yl)methyl)amino)methyl)-[2,3′-bipyridin]-4-yl)phenyl)-2-methoxypyridin-3-yl)methyl)amino)methyl)pyrrolidin-2-one]",10.00,7.44
"COc1nc(-c2cccc(-c3ccnc(-c4ccc5c(c4)N(C)CCN(C[C@H](C)O)C5)c3Cl)c2Cl)ccc1CNC[C@@H]1CCC(=O)N1 [Compound 24, (S)-5-((((6-(2-chloro-3-(3-chloro-2-(4-((S)-2-hydroxypropyl)-1-methyl-2,3,4,5-tetrahydro-1H-benzo[e][1,4]diazepin-8-yl)pyridin-4-yl)phenyl)-2-methoxypyridin-3-yl)methyl)amino)methyl)pyrrolidin-2-one]",9.10,7.06
"COc1nc(-c2cccc(-c3ccnc(-c4ccc5c(c4)OCCN(C[C@H](C)O)C5)c3Cl)c2Cl)ccc1CNC[C@@H]1CCC(=O)N1 [Compound 25, (S)-5-((((6-(2-chloro-3-(3-chloro-2-(4-((S)-2-hydroxypropyl)-2,3,4,5-tetrahydrobenzo[f][1,4]oxazepin-8-yl)pyridin-4-yl)phenyl)-2-methoxypyridin-3-yl)methyl)amino)methyl)pyrrolidin-2-one]",9.30,6.48
"COc1nc(-c2cccc(-c3ccnc(-c4ccc5c(c4)OCCNC5)c3Cl)c2Cl)ccc1CNC[C@@H]1CCC(=O)N1 [Compound 26, (S)-5-((((6-(2-chloro-3-(3-chloro-2-(2,3,4,5-tetrahydrobenzo[f][1,4]oxazepin-8-yl)pyridin-4-yl)phenyl)-2-methoxypyridin-3-yl)methyl)amino)methyl)pyrrolidin-2-one]",9.70,7.11
"COc1nc(-c2cccc(-c3ccnc(-c4ccc5c(CNC6CCN(C(C)=O)CC6)cn(C)c5c4)c3Cl)c2Cl)ccc1CNC[C@@H]1CCC(=O)N1 [Compound 28, (S)-5-((((6-(3-(2-(3-(((1-acetylpiperidin-4-yl)amino)methyl)-1-methyl-1H-indol-6-yl)-3-chloropyridin-4-yl)-2-chlorophenyl)-2-methoxypyridin-3-yl)methyl)amino)methyl)pyrrolidin-2-one]",8.92,7.32
"COc1nc(-c2cccc(-c3ccnc(-c4ccc5c(CNCCO)cn(C)c5c4)c3Cl)c2Cl)ccc1CNC[C@@H]1CCC(=O)N1 [Compound 29, (S)-5-((((6-(2-chloro-3-(3-chloro-2-(3-(((2-hydroxyethyl)amino)methyl)-1-methyl-1H-indol-6-yl)pyridin-4-yl)phenyl)-2-methoxypyridin-3-yl)methyl)amino)methyl)pyrrolidin-2-one]",8.96,7.03
"COCCNCc1cn(C)c2cc(-c3nccc(-c4cccc(-c5ccc(CNC[C@@H]6CCC(=O)N6)c(OC)n5)c4Cl)c3Cl)ccc12 [Compound 30, (S)-5-((((6-(2-chloro-3-(3-chloro-2-(3-(((2-methoxyethyl)amino)methyl)-1-methyl-1H-indol-6-yl)pyridin-4-yl)phenyl)-2-methoxypyridin-3-yl)methyl)amino)methyl)pyrrolidin-2-one]",7.81,7.00
"CNCc1cn(C)c2cc(-c3nccc(-c4cccc(-c5ccc(CNC[C@@H]6CCC(=O)N6)c(OC)n5)c4Cl)c3Cl)ccc12 [Compound 31, (S)-5-((((6-(2-chloro-3-(3-chloro-2-(1-methyl-3-((methylamino)methyl)-1H-indol-6-yl)pyridin-4-yl)phenyl)-2-methoxypyridin-3-yl)methyl)amino)methyl)pyrrolidin-2-one]",9.52,6.87
"CCNCc1cn(C)c2cc(-c3nccc(-c4cccc(-c5ccc(CNC[C@@H]6CCC(=O)N6)c(OC)n5)c4Cl)c3Cl)ccc12 [Compound 32, (S)-5-((((6-(2-chloro-3-(3-chloro-2-(3-((ethylamino)methyl)-1-methyl-1H-indol-6-yl)pyridin-4-yl)phenyl)-2-methoxypyridin-3-yl)methyl)amino)methyl)pyrrolidin-2-one]",9.15,6.58
"COc1nc(-c2cccc(-c3ccnc(-c4ccc5c(CN(C)C)cn(C)c5c4)c3Cl)c2Cl)ccc1CNC[C@@H]1CCC(=O)N1 [Compound 33, (S)-5-((((6-(2-chloro-3-(3-chloro-2-(3-((dimethylamino)methyl)-1-methyl-1H-indol-6-yl)pyridin-4-yl)phenyl)-2-methoxypyridin-3-yl)methyl)amino)methyl)pyrrolidin-2-one]",9.40,6.65
"COc1nc(-c2cccc(-c3ccnc(-c4ccc5c(CNC[C@@H]6CCO6)cn(C)c5c4)c3Cl)c2Cl)ccc1CNC[C@@H]1CCC(=O)N1 [Compound 34, (S)-5-((((6-(2-chloro-3-(3-chloro-2-(1-methyl-3-(((((S)-oxetan-2-yl)methyl)amino)methyl)-1H-indol-6-yl)pyridin-4-yl)phenyl)-2-methoxypyridin-3-yl)methyl)amino)methyl)pyrrolidin-2-one]",7.14,6.91
"COc1nc(-c2cccc(-c3ccnc(-c4ccc5c(CNC[C@H](C)O)cn(C)c5c4)c3Cl)c2Cl)ccc1CNC[C@@H]1CCC(=O)N1 [Compound 35, (S)-5-((((6-(2-chloro-3-(3-chloro-2-(3-((((S)-2-hydroxypropyl)amino)methyl)-1-methyl-1H-indol-6-yl)pyridin-4-yl)phenyl)-2-methoxypyridin-3-yl)methyl)amino)methyl)pyrrolidin-2-one]",8.96,6.07
"COc1nc(-c2cccc(-c3ccnc(-c4ccc5c(CNCC(C)(C)O)cn(C)c5c4)c3Cl)c2Cl)ccc1CNC[C@@H]1CCC(=O)N1 [Compound 36, (S)-5-((((6-(2-chloro-3-(3-chloro-2-(3-(((2-hydroxy-2-methylpropyl)amino)methyl)-1-methyl-1H-indol-6-yl)pyridin-4-yl)phenyl)-2-methoxypyridin-3-yl)methyl)amino)methyl)pyrrolidin-2-one]",8.47,7.09
"COc1nc(-c2cccc(-c3ccnc(-c4ccc5c(CNCC(C)C)cn(C)c5c4)c3Cl)c2Cl)ccc1CNC[C@@H]1CCC(=O)N1 [Compound 38, (S)-5-((((6-(2-chloro-3-(3-chloro-2-(3-((isobutylamino)methyl)-1-methyl-1H-indol-6-yl)pyridin-4-yl)phenyl)-2-methoxypyridin-3-yl)methyl)amino)methyl)pyrrolidin-2-one]",6.93,6.43
"COc1nc(-c2cccc(-c3ccnc(-c4ccc5c(CN(C)CCO)cn(C)c5c4)c3Cl)c2Cl)ccc1CNC[C@@H]1CCC(=O)N1 [Compound 39, (S)-5-((((6-(2-chloro-3-(3-chloro-2-(3-(((2-hydroxyethyl)(methyl)amino)methyl)-1-methyl-1H-indol-6-yl)pyridin-4-yl)phenyl)-2-methoxypyridin-3-yl)methyl)amino)methyl)pyrrolidin-2-one]",9.00,7.21
"COc1nc(-c2cccc(-c3ccnc(-c4ccc5c(CNC[C@H](C)OC)cn(C)c5c4)c3Cl)c2Cl)ccc1CNC[C@@H]1CCC(=O)N1 [Compound 40, (S)-5-((((6-(2-chloro-3-(3-chloro-2-(3-((((S)-2-methoxypropyl)amino)methyl)-1-methyl-1H-indol-6-yl)pyridin-4-yl)phenyl)-2-methoxypyridin-3-yl)methyl)amino)methyl)pyrrolidin-2-one]",7.99,5.38
"COc1nc(-c2cccc(-c3ccnc(-c4ccc5c(CNC[C@@H]6CCCO6)cn(C)c5c4)c3Cl)c2Cl)ccc1CNC[C@@H]1CCC(=O)N1 [Compound 41, (S)-5-((((6-(2-chloro-3-(3-chloro-2-(1-methyl-3-(((((S)-tetrahydrofuran-2-yl)methyl)amino)methyl)-1H-indol-6-yl)pyridin-4-yl)phenyl)-2-methoxypyridin-3-yl)methyl)amino)methyl)pyrrolidin-2-one]",7.47,6.79
"COc1nc(-c2cccc(-c3ccnc(-c4ccc5c(CNC6CCOCC6)cn(C)c5c4)c3Cl)c2Cl)ccc1CNC[C@@H]1CCC(=O)N1 [Compound 42, (S)-5-((((6-(2-chloro-3-(3-chloro-2-(1-methyl-3-(((tetrahydro-2H-pyran-4-yl)amino)methyl)-1H-indol-6-yl)pyridin-4-yl)phenyl)-2-methoxypyridin-3-yl)methyl)amino)methyl)pyrrolidin-2-one]",10.00,7.05
"COc1nc(-c2cccc(-c3ccnc(-c4ccc5c(CNC6CCS(=O)(=O)CC6)cn(C)c5c4)c3Cl)c2Cl)ccc1CNC[C@@H]1CCC(=O)N1 [Compound 43, (S)-5-((((6-(2-chloro-3-(3-chloro-2-(3-(((1,1-dioxidotetrahydro-2H-thiopyran-4-yl)amino)methyl)-1-methyl-1H-indol-6-yl)pyridin-4-yl)phenyl)-2-methoxypyridin-3-yl)methyl)amino)methyl)pyrrolidin-2-one]",9.70,7.20
"COc1nc(-c2cccc(-c3ccnc(-c4cc5c(=O)n(C)c(CN6CC7(CC(O)C7)C6)nn5c4)c3Cl)c2Cl)ccc1CNC[C@@H]1CCC(=O)N1 [Compound 48, (S)-6-(3-chloro-4-(2-chloro-3-(6-methoxy-5-((((5-oxopyrrolidin-2-yl)methyl)amino)methyl)pyridin-2-yl)phenyl)pyridin-2-yl)-2-((6-hydroxy-2-azaspiro[3.3]heptan-2-yl)methyl)-3-methylpyrrolo[2,1-f][1,2,4]triazin-4(3H)-one]",10.40,7.73
